# From patent US10632122B2, “Compositions and methods for treating toxoplasmosis, cryptosporidiosis and other apicomplexan protozoan related diseases” (University of Washington, priority 2015, dated 2020)
# Columns and labels:
# N. caninum = experiment: Mice experimentally infected with N. caninum; design: species or system Balb/c mice; settings: mouse, in vivo
# [1] = Rat PK following IV and PO dosing; settings: PO vs IV, rats
bioavailability [1],SMILES,treatment of N. caninum infected mice (N. caninum)
–,CCOc1ccc2cc(-c3nn(CC4CCN(C)CC4)c4ncnc(N)c34)ccc2c1 [Compound 150],treats infected mice and rids of N. caninum infection in brain and fetuses
essentially complete bioavailability,"CC(C)Cn1nc(-c2ccc3cc(OCC(C)(C)O)ccc3c2)c2c(N)ncnc21 [Example 33, 1-(6-(4-amino-1-isobutyl-1H-pyrazolo[3,4-d]pyrimidin-3-yl)naphthalen-2-yloxy)-2-methylpropan-2-ol]",–
